From ChEMBL document CHEMBL1156867, “Improved synthesis of a fluorogenic ceramidase substrate” (Bioorg Med Chem, 2010)
Calls of active or inactive are those of the source. The calls are words filed in the database; no cut-off is given here.

Assays:
SK-OV-3 [1] = assay: Activity of ceramidase in human SKOV3 cells assessed as formation of 7-(((3R,4S)-4-amino-3,5- dihydroxypentyl)oxy)-2H-chromen-2-one at 16 uM after 24 hrs at 37 degC by HPLC; type: cell-based
SK-OV-3 [2] = assay: Activity of ceramidase in human SKOV3 cells assessed as formation of 7-(((3R,4S)-4-amino-3,5- dihydroxypentyl)oxy)-2H-chromen-2-one at 16 uM after 1 to 24 hrs at 37 degC by umbelliferone formation based fluorescence intensity assay; type: cell-based; settings: TDE = time-dependent effect
SK-OV-3 [3] = assay: Activity of ceramidase in human SKOV3 cells assessed as formation of 7-(((3R,4S)-4-amino-3,5- dihydroxypentyl)oxy)-2H-chromen-2-one at 16 uM after 1 to 24 hrs at 37 degC by HPLC; type: cell-based; settings: TDE = time-dependent effect
[4] = Inhibition of rat liver ceramidase assessed as hydrolysis of N-((2S,3R)-1,3-dihydroxy-5-((2-oxo-2H-chromen-7-yl)oxy)pentan-2-yl)palmitamide
[5] = Inhibition of ceramidase in human SKOV3 cells assessed as hydrolysis of N-((2S,3R)-1,3-dihydroxy-5-((2-oxo-2H-chromen-7-yl)oxy)pentan-2-yl)palmitamide at 16 uM after 24 hrs at 37 degC by umbelliferone formation based fluorescence intensity assay; type: cell-based, SK-OV-3
[6] = Inhibition of ceramidase in human SKOV3 cells assessed as hydrolysis of N-((2S,3R)-1,3-dihydroxy-5-((2-oxo-2H-chromen-7-yl)oxy)pentan-2-yl)palmitamide at 16 uM after 24 hrs at 37 degC by HPLC; type: cell-based; settings: sk-ov-3
[7] = Inhibition of pig liver ceramidase assessed as hydrolysis of N-((2S,3R)-1,3-dihydroxy-5-((2-oxo-2H-chromen-7-yl)oxy)pentan-2-yl)palmitamide; design: species or system Sus scrofa

Row | SMILES | Activity (SK-OV-3 [1]) | Activity (SK-OV-3 [2]) | Activity (SK-OV-3 [3]) | IC50 [4] | IC50 ([5]; Homo sapiens, SK-OV-3, 24 h, read-out: IC50) | IC50 ([5]; sk-ov-3) | IC50 [6] | IC50 ([6]; read-out: IC50) | IC50 [7]
1 | CCCCCCCCCCCCCCCC(=O)N[C@@H](CO)[C@H](O)CCOc1ccc2ccc(=O)oc2c1 | Active | tde | tde |  |  |  |  |  | 
2 | CCCCCCCC/C=C\CCCCCCCC(=O)NCCO [OLEOYLETHANOLAMIDE] |  |  |  | 71 µM | 28 µM | Dose-dependent effect | Dose-dependent effect | 24 µM | 76 µM
